Columns and labels:
[1] = test system: ECHCG; assay: Pre-emergence action against ECHCG, 1280 g/ha; type: in vivo, Echinochloa crus-galli; settings: visual scoring after about 3 weeks vs untreated controls, 100% = plants have died, 0% = like control plants
In short: (§1)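 In greenhouse pots of sandy loam, sown weed seeds were covered with soil and treated pre-emergence with the compound in water (600 L/ha, 0.5% additive). Efficacy was assessed visually as percent of untreated control after about 3 weeks.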

[2] = test system: DIGSA; assay: Post-emergence action at 320 g/ha against DIGSA; type: in vivo, Digitaria sanguinalis; settings: dosage 320 g/ha, visual rating about 3 weeks after treatment vs untreated controls (100% = plants died)
Excerpt: (§2) Accordingly, the compounds of the invention have good herbicidal action against a broad spectrum of weed grasses and broad-leaved weeds and are therefore suitable for controlling unwanted vegetation by the post-emergence method. • b) Seeds of monocotyledonous and dicotyledonous weeds and crop plants are placed in sandy loam in plastic or organic planting pots, covered with soil and cultivated in a greenhouse under controlled growth conditions. 2 to 3 weeks after sowing, the test plants are treated at the one-leaf stage. The compounds of the invention, formulated in the form of wettable powders (WP) or as emulsion concentrates (EC), are then sprayed onto the green parts of the plants as aqueous suspension or emulsion with addition of 0.5% additive at a water application rate of 600 l/ha (converted). After the test plants have been kept in the greenhouse under optimum growth conditions for about 3 weeks, the activity of the preparations is rated visually in comparison to untreated controls. For example, 100% activity=the plants have died, 0% activity=like control plants. Tables 39 to 49 below show the effects of selected compounds of the general formula (I) according to Tables 1 and 2 on various harmful plants and at an application rate corresponding to 320 g/ha, which were obtained by the experimental procedure mentioned above.

[3] = test system: AMARE; assay: Pre-emergence action against AMARE, 1280 g/ha; type: in vivo, Amaranthus retroflexus; settings: scored visually after about 3 weeks vs untreated controls (100% = plants have died)
In short: as §1

[4] = test system: POLCO; assay: Pre-emergence action at 320 g/ha against POLCO; type: in vivo, Fallopia convolvulus (Polygonum convolvulus); settings: visual scoring after about 3 weeks vs untreated controls
In short: (§3)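 Greenhouse pot trial in which formulated compound (wettable powder or emulsion concentrate) goes onto the soil surface right after sowing, at a spray volume of 600 l/ha including 0.5% additive. Effects are judged visually after about 3 weeks (0% = like control, 100% = dead).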

[5] = test system: LOLRI; assay: Pre-emergence action against LOLRI, 1280 g/ha; type: in vivo, Lolium rigidum; settings: visual scoring after about 3 weeks vs untreated controls, 100% = plants have died, 0% = like control plants
In short: as §1

[6] = test system: AVEFA; assay: Pre-emergence action at 320 g/ha against AVEFA; type: in vivo; settings: visual scoring after about 3 weeks vs untreated controls
In short: as §3

[7] = test system: MATIN; assay: Post-emergence action against MATIN, 1.28 kg/ha; type: in vivo, Tripleurospermum inodorum (Matricaria inodora); settings: dosage 1280 g/ha, visual rating about 3 weeks after treatment vs untreated controls (100% = plants died)
In short: (§4)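 Foliar application at the one-leaf stage: compound as WP or EC in water with 0.5% additive, sprayed at 600 L/ha. Plants are kept about 3 weeks in the greenhouse, then % herbicidal action is estimated visually (100% = death).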

[8] = test system: SETVI; assay: Post-emergence action at 320 g/ha against SETVI; type: in vivo, Setaria viridis; settings: visual rating about 3 weeks after treatment vs untreated controls
Excerpt: as §2

[9] = test system: ECHCG; assay: Post-emergence action against ECHCG, 1.28 kg/ha; type: in vivo, Echinochloa crus-galli; settings: dosage 1280 g/ha, visual rating about 3 weeks after treatment vs untreated controls
In short: as §4

[10] = test system: SETVI; assay: Pre-emergence action at 320 g/ha against SETVI; type: in vivo, Setaria viridis; settings: visual scoring after about 3 weeks vs untreated controls
In short: as §3

[11] = test system: VERPE; assay: Pre-emergence action at 320 g/ha against VERPE; type: in vivo, Veronica persica; settings: visual scoring after about 3 weeks vs untreated controls
In short: as §3

[12] = test system: STEME; assay: Pre-emergence action against STEME, 1280 g/ha; type: in vivo, Stellaria media; settings: scored visually after about 3 weeks vs untreated controls (100% = plants have died)
In short: as §1

[13] = test system: ALOMY; assay: Post-emergence action against ALOMY, 320 g/ha; type: in vivo, Alopecurus myosuroides; settings: dosage 320 g/ha, visual rating about 3 weeks after treatment vs untreated controls (100% = plants died)
Excerpt: as §2

[14] = test system: STEME; assay: Post-emergence action against STEME, 1.28 kg/ha; type: in vivo, Stellaria media; settings: dosage 1280 g/ha, visual rating about 3 weeks after treatment vs untreated controls (100% = plants died)
In short: as §4

[15] = test system: ECHGC; assay: Pre-emergence action at 320 g/ha against ECHGC; type: in vivo, Echinochloa crus-galli; settings: visual scoring after about 3 weeks vs untreated controls
In short: as §3

[16] = test system: DIGSA; assay: Pre-emergence action against DIGSA, 1280 g/ha; type: in vivo, Digitaria sanguinalis; settings: visual scoring after about 3 weeks vs untreated controls, 100% = plants have died, 0% = like control plants
In short: as §1

[17] = test system: LOLRI; assay: Post-emergence action against LOLRI, 1.28 kg/ha; type: in vivo, Lolium rigidum; settings: dosage 1280 g/ha, visual rating about 3 weeks after treatment vs untreated controls
In short: as §4

[18] = test system: KCHSC; assay: Pre-emergence action against KCHSC, 1280 g/ha; type: in vivo, Bassia scoparia; settings: scored visually after about 3 weeks vs untreated controls (100% = plants have died)
In short: as §1

[19] = test system: POAAN; assay: Pre-emergence action against POAAN, 1280 g/ha; type: in vivo, Poa annua; settings: visual scoring after about 3 weeks vs untreated controls, 100% = plants have died, 0% = like control plants
In short: as §1

[20] = test system: VIOTR; assay: Pre-emergence action at 320 g/ha against VIOTR; type: in vivo, Viola tricolor; settings: dosage 320 g/ha
In short: as §3

[21] = test system: ALOMY; assay: Pre-emergence action against ALOMY, 1280 g/ha; type: in vivo, Alopecurus myosuroides; settings: visual scoring after about 3 weeks vs untreated controls, 100% = plants have died, 0% = like control plants
In short: as §1

[22] = test system: DIGSA; assay: Pre-emergence action at 320 g/ha against DIGSA; type: in vivo, Digitaria sanguinalis; settings: visual scoring after about 3 weeks vs untreated controls
In short: as §3

[23] = test system: KCHSC; assay: Post-emergence action against KCHSC, 1.28 kg/ha; type: in vivo, Bassia scoparia; settings: dosage 1280 g/ha, visual rating about 3 weeks after treatment vs untreated controls (100% = plants died)
In short: as §4

[24] = test system: ALOMY; assay: Pre-emergence action at 320 g/ha against ALOMY; type: in vivo, Alopecurus myosuroides; settings: scored visually after about 3 weeks vs untreated controls (100% = plants have died)
In short: as §3

[25] = test system: MATIN; assay: Pre-emergence action at 320 g/ha against MATIN; type: in vivo, Tripleurospermum inodorum (Matricaria inodora); settings: visual scoring after about 3 weeks vs untreated controls
In short: as §3

[26] = test system: AMARE; assay: Pre-emergence action at 320 g/ha against AMARE; type: in vivo, Amaranthus retroflexus; settings: visual scoring after about 3 weeks vs untreated controls
In short: as §3

[27] = test system: VERPE; assay: Pre-emergence action against VERPE, 1280 g/ha; type: in vivo, Veronica persica; settings: scored visually after about 3 weeks vs untreated controls (100% = plants have died)
In short: as §1

[28] = test system: DIGSA; assay: Post-emergence action against DIGSA, 1.28 kg/ha; type: in vivo, Digitaria sanguinalis; settings: dosage 1280 g/ha, visual rating about 3 weeks after treatment vs untreated controls
In short: as §4

[29] = test system: MATIN; assay: Pre-emergence action against MATIN, 1280 g/ha; type: in vivo, Tripleurospermum inodorum (Matricaria inodora); settings: scored visually after about 3 weeks vs untreated controls (100% = plants have died)
In short: as §1

[30] = test system: SETVI; assay: Pre-emergence action against SETVI, 1280 g/ha; type: in vivo, Setaria viridis; settings: visual scoring after about 3 weeks vs untreated controls, 100% = plants have died, 0% = like control plants
In short: as §1

[31] = test system: LOLRI; assay: Pre-emergence action at 320 g/ha against LOLRI; type: in vivo, Lolium rigidum; settings: visual scoring after about 3 weeks vs untreated controls
In short: as §3

[32] = test system: POAAN; assay: Post-emergence action against POAAN, 1.28 kg/ha; type: in vivo, Poa annua; settings: dosage 1280 g/ha, visual rating about 3 weeks after treatment vs untreated controls
In short: as §4

SMILES: CC(Oc1nn(-c2ccccc2F)c(-c2ccc(F)nc2)c1I)C(=O)O (centres unmarked) [VII-118]
- Pre-emergence action against ECHCG [1]: 100%
- Post-emergence action at 320 g/ha against DIGSA in % [2]: 90%
- Pre-emergence action against AMARE [3]: 100%
- Pre-emergence action against POLCO in % [4]: 100%
- Pre-emergence action against LOLRI [5]: 100%
- Pre-emergence action against AVEFA in % [6]: 100%
- Post-emergence action against MATIN [7]: 90%
- Post-emergence action against SETVI in % [8]: 80%
- Post-emergence action against ECHCG [9]: 100%
- Pre-emergence action against SETVI in % [10]: 90%
- Pre-emergence action against VERPE in % [11]: 90%
- Pre-emergence action against STEME [12]: 100%
- Post-emergence action against ALOMY [13]: 90%
- Post-emergence action against STEME [14]: 100%
- Pre-emergence action against ECHGC in % [15]: 90%
- Pre-emergence action against DIGSA [16]: 100%
- Post-emergence action against LOLRI [17]: 100%
- Pre-emergence action against KCHSC [18]: 100%
- Pre-emergence action against POAAN [19]: 100%
- Pre-emergence action against VIOTR in % [20]: 100%
- Pre-emergence action against ALOMY [21]: 100%
- Pre-emergence action against DIGSA in % [22]: 100%
- Post-emergence action against KCHSC [23]: 90%
- Pre-emergence action at 320 g/ha against ALOMY in % [24]: 100%
- Pre-emergence action against MATIN in % [25]: 90%
- Pre-emergence action against AMARE in % [26]: 100%
- Pre-emergence action against VERPE [27]: 100%
- Post-emergence action against DIGSA [28]: 100%
- Pre-emergence action against MATIN [29]: 100%
- Pre-emergence action against SETVI [30]: 100%
- Pre-emergence action against LOLRI in % [31]: 100%
- Post-emergence action against POAAN [32]: 100%
